Measured values published in ChEMBL document CHEMBL1201862, “PubChem BioAssay data set” (2004).
Activity calls are given as the source filed them.

Key:
[1] = target: T1, Probable nicotinate-nucleotide adenylyltransferase (Staphylococcus aureus (strain N315), UniProt P65502); format: functional, Staphylococcus aureus subsp. aureus N315;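 for IC50 Mean: confirmatory dose-response retesting of NadD inhibitor hits first found in an ultra-high-throughput screen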
[2] = target: T1, Probable nicotinate-nucleotide adenylyltransferase; format: functional, Staphylococcus aureus subsp. aureus N315; conditions: read-out: IC50_Mean
Vero [3] = assay: viability of Vero cells under compound – cytotoxicity control for flavivirus capping enzyme inhibitors (AID 588742); format: functional; conditions: Chlorocebus sabaeus
Genome polyprotein = Genome polyprotein (dengue virus type 2, UniProt P29990); assay: flavivirus cap methylation enzyme inhibition – biochemical, confirmation dose response, primary screen (AID 588689); format: functional
Genome polyprotein, sequence (P29990 2492-3391 limits assumed): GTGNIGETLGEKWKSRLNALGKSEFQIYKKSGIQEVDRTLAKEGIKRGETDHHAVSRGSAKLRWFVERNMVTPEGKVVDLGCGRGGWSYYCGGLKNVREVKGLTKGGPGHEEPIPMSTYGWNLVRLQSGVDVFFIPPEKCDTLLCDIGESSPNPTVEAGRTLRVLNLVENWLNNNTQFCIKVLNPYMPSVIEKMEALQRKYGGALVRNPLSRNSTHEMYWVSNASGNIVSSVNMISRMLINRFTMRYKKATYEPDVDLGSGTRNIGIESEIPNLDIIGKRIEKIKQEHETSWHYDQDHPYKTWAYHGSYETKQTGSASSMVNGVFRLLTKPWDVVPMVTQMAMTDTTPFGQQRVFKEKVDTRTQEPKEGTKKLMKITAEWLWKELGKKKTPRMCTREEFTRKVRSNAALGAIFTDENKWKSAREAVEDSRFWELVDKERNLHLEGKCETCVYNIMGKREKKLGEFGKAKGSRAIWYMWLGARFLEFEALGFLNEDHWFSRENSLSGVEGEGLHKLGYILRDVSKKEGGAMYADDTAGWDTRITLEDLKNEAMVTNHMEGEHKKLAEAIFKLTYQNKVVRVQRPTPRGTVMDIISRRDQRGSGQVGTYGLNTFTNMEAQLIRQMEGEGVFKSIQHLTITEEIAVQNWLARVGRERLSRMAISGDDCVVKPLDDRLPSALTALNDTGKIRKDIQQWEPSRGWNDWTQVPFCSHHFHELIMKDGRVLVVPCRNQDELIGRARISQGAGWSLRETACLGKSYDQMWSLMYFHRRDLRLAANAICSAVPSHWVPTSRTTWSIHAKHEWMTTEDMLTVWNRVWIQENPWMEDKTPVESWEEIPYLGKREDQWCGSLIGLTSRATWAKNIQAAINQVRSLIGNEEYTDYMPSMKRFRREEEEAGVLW

Melanocortin receptor 4 = Melanocortin receptor 4 (Homo sapiens, UniProt P32245); format: functional, cell-based;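 note: Cell-based assay with luminescence read-out, confirmatory dose-response testing for agonist activity of biased ligands at MC4R; human U2OS cells with tagged receptor and beta-arrestin; potency of agonists that increase receptor coupling to beta-arrestin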
Melanocortin receptor 4, sequence (P32245 whole entry): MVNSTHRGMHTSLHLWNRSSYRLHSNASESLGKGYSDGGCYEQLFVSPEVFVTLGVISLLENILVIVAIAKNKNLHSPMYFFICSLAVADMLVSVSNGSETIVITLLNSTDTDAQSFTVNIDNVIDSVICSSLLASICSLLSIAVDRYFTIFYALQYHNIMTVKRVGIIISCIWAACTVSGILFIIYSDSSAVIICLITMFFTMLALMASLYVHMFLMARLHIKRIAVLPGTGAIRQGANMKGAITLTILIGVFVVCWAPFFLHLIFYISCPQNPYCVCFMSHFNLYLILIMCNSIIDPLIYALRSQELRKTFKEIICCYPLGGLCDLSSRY

Beta-lactamase [4] = target: Beta-lactamase (Pseudomonas aeruginosa, UniProt Q79MP6);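 note: biochemical dose-response test of metallo-beta-lactamase enzyme inhibition, read out by epi-absorbance; purified recombinant IMP-1 metallo-beta-lactamase with nitrocefin as substrate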
Beta-lactamase (Pseudomonas aeruginosa, UniProt Q79MP6), sequence (Q79MP6 whole entry, the tested form may be a part): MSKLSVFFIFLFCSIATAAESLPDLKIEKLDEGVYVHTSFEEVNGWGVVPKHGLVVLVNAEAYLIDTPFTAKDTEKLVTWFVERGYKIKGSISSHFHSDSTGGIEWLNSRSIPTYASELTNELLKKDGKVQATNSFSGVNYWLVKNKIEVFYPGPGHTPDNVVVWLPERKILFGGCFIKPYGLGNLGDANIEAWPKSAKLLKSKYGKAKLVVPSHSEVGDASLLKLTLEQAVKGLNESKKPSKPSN

[5] = target: T2, RNA-binding protein pos-1 (Caenorhabditis elegans, UniProt G5EF15); assay: disruptors of C. elegans POS-1 RNA interaction – biochemical, fluorescence polarization, dose response (AID 1964);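 note: purified POS-1 fused to maltose binding protein made in E. coli; potency of compounds blocking POS-1 binding to fluorescent RNA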
T2 sequence (G5EF15 whole entry): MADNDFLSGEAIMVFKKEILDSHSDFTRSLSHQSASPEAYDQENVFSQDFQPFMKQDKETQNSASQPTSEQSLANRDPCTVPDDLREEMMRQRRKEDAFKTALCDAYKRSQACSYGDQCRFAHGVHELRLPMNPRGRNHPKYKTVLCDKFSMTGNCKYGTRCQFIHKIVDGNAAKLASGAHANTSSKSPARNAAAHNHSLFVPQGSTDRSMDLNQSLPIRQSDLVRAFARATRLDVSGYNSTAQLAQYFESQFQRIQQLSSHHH

Beta-lactamase [6] = target: Beta-lactamase (Salmonella choleraesuis (strain SC-B67), UniProt Q5J463)
Beta-lactamase (Salmonella choleraesuis (strain SC-B67), UniProt Q5J463), sequence (Q5J463 whole entry): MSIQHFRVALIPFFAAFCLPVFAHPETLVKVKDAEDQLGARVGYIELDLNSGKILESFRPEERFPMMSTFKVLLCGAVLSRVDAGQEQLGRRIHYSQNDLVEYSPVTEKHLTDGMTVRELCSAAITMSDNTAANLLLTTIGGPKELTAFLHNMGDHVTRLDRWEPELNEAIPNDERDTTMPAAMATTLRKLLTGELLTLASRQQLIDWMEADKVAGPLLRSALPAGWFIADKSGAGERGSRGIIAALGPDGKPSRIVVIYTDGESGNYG

[7] = target: T3, Zinc finger protein mex-5 (Caenorhabditis elegans, UniProt Q9XUB2); assay: potency of MEX-5 RNA-binding blockers – biochemical, C. elegans, fluorescence polarization, dose response (AID 1960)
T3 sequence (Q9XUB2 whole entry): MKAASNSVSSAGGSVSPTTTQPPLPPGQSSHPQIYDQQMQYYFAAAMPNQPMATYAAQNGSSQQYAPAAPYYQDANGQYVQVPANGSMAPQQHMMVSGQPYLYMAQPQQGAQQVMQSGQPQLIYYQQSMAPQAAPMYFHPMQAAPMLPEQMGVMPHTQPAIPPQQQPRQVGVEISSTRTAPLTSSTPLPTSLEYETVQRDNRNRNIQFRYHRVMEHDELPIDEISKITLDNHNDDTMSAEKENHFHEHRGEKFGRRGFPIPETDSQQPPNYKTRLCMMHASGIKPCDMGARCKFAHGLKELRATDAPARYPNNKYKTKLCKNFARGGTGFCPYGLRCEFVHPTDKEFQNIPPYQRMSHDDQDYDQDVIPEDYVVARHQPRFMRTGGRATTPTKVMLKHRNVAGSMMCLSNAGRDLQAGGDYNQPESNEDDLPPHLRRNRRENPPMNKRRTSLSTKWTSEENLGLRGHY

Protein Wnt-3a = Protein Wnt-3a (Mus musculus, UniProt P27467); assay: antagonism of Wnt3a pathway luciferase reporter – Wnt-LIGHT cells, luminescence, selectivity assay for Gli-SUFU antagonist project, dose response (AID 651570); format: functional; conditions: read-out: IC50_Mean;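 note: Wnt-LIGHT reporter cells stimulated with conditioned medium from Wnt3a-producing cells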
Protein Wnt-3a, sequence (P27467 whole entry): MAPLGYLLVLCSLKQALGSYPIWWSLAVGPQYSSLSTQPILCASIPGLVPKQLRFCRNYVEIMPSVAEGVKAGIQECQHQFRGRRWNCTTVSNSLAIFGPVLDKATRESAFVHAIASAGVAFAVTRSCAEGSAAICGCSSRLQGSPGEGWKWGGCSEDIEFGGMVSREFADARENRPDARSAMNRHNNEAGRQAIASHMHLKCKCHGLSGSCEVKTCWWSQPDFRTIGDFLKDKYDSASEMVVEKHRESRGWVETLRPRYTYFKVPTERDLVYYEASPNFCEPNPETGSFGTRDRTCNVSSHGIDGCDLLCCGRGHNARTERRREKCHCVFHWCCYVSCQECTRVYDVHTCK

[8] = target: T4, Rac GTPase-activating protein 1 (Homo sapiens, UniProt Q9H0H5); assay: blockers of MgcRacGAP-driven Rac1 GTP hydrolysis – biochemical, ADP Hunter fluorescence, primary and confirmatory, confirmation (AID 624330); format: functional
T4 sequence (Q9H0H5 whole entry): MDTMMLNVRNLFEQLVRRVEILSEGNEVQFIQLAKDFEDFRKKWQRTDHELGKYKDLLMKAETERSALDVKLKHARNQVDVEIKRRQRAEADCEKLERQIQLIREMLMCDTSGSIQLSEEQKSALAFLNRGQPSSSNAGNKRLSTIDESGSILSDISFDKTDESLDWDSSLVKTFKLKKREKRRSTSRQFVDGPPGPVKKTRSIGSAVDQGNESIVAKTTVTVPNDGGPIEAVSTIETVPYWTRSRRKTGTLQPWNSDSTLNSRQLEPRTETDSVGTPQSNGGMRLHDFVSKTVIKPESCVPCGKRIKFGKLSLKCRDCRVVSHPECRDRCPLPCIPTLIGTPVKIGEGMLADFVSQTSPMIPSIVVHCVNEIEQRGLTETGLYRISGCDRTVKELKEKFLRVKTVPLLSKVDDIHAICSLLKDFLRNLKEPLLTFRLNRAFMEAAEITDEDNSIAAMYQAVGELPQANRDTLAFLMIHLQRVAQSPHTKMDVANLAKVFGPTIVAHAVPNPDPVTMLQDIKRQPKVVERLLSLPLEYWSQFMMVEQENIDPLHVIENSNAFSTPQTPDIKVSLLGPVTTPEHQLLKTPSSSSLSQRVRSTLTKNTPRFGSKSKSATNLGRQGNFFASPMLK

[9] = Luminescence Cell-Based Dose Retest to Confirm Inhibitors of Cancer Stem Cells. [Related pubchem assays (depositor defined):AID2717, AID2721]; format: functional; conditions: Homo sapiens
[10] = viability loss in HeLa cells – cytotoxicity control for MgcRacGAP inhibitor project, dose response (AID 624300); format: functional
[11] = target: T5, Adenosylmethionine-8-amino-7-oxononanoate aminotransferase (Mycobacterium tuberculosis, UniProt P9WQ81); assay: Mycobacterium tuberculosis BioA enzyme inhibitor Measured in Biochemical System Using Plate Reader - 2163-02_Inhibitor_Dose_CherryPick_Activity.; format: functional, Mycobacterium tuberculosis UT205
T5 sequence (P9WQ81 whole entry): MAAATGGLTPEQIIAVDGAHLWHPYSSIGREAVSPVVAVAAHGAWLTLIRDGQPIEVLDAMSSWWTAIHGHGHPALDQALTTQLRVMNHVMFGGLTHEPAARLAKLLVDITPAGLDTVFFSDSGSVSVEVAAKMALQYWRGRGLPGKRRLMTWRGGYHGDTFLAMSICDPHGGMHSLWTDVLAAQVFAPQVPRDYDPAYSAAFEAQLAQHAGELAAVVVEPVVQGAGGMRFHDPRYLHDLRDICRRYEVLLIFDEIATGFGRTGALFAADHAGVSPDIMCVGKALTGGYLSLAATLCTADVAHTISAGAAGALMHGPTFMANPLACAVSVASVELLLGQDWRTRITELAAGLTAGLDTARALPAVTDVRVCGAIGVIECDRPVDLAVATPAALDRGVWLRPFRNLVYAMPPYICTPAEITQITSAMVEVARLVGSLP

[12] = luciferase reporter signal suppression in cells – H4 neuroglioma cells, luminescence, dose response (AID 1990); format: functional, cell-based
[13] = alpha-synuclein stem-loop luciferase translation blockers – H4 neuroglioma cells, luminescence, confirmation (AID 1988); format: functional, cell-based
[14] = Luminescence Cell-Based Dose Response HTS to Identify Inhibitors of 5'UTR Stem-Loop Driven Prion Protein mRNA Translation in H4 Neuroglioblastoma Cells. [Related pubchem assays: 1827 (Project Summary), 1813 (Primary HTS)]; format: functional
cells [15] = format: functional, cell-based
[16] = target: T6, Trace amine-associated receptor 1 (Homo sapiens, UniProt Q96RJ0); assay: Counterscreen for agonists of the human trace amine associated receptor 1 (hTAAR1): Fluorescence-based cell-based high throughput dose response assay to identify hTAAR1 agonist that also desensitize TAAR1 receptor response.; format: functional
T6 sequence (Q96RJ0 whole entry): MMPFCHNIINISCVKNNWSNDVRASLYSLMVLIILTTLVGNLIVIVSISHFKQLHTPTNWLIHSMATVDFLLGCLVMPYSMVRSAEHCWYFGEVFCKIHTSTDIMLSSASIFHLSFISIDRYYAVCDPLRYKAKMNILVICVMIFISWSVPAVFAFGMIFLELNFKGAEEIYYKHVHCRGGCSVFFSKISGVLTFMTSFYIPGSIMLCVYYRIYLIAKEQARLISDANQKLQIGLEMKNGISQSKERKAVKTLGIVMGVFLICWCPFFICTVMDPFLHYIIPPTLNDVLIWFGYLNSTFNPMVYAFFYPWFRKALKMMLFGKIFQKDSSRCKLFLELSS

[17] = target: T6, Trace amine-associated receptor 1; assay: Fluorescence-based cell-based high throughput dose response assay to identify agonists of the human trace amine associated receptor 1 (TAAR1).; format: functional
cells [18] = format: functional, cell-based; remark: listed apart in the source
Vero [19] = assay: cells; format: functional; conditions: Chlorocebus sabaeus
[20] = target: Glucose-6-phosphate 1-dehydrogenase (Homo sapiens, UniProt P11413); assay: inhibition of Homo sapiens G6PD, dose series – biochemical, fluorescence, selectivity assay for P. falciparum G6PD inhibitor project, dose response (AID 504792); format: functional
Glucose-6-phosphate 1-dehydrogenase, sequence (P11413 whole entry): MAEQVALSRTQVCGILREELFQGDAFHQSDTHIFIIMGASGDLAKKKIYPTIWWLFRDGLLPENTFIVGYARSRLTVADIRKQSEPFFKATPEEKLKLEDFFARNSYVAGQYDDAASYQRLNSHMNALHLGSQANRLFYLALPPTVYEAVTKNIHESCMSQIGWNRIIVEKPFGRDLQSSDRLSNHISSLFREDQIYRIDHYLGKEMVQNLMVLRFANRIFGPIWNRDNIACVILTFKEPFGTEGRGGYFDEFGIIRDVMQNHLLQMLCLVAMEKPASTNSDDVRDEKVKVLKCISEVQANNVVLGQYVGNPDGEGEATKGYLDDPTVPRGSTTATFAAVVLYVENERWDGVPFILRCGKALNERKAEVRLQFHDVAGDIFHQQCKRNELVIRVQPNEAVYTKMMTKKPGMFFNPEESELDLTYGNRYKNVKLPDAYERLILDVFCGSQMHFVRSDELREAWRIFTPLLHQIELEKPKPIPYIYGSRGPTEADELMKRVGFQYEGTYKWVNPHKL

[21] = target: T7, Small ubiquitin-related modifier 1 (Homo sapiens, UniProt P63165); assay: SUMO1 protein-protein binding blockers, potency – biochemical, FRET, dose response (AID 624383); format: functional; conditions: read-out: IC50_Mean
T7 sequence (P63165 whole entry): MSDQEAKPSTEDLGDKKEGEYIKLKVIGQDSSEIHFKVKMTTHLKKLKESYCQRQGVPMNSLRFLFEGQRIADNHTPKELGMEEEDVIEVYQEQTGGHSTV

[22] = target: T7, Small ubiquitin-related modifier 1; assay: SUMO1 protein interaction blockers, potency – biochemical, fluorescence polarization, uHTS hits, dose response (AID 624382); format: functional; conditions: read-out: IC50_Mean
[23] = target: Photoreceptor-specific nuclear receptor (Homo sapiens, UniProt Q9Y5X4); format: functional, cell-based;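 note: CHO-S cells with Gal4-NCOR and VP16-NR2E3 two-hybrid luciferase reporter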
Photoreceptor-specific nuclear receptor, sequence (Q9Y5X4 whole entry, the tested form may be a part): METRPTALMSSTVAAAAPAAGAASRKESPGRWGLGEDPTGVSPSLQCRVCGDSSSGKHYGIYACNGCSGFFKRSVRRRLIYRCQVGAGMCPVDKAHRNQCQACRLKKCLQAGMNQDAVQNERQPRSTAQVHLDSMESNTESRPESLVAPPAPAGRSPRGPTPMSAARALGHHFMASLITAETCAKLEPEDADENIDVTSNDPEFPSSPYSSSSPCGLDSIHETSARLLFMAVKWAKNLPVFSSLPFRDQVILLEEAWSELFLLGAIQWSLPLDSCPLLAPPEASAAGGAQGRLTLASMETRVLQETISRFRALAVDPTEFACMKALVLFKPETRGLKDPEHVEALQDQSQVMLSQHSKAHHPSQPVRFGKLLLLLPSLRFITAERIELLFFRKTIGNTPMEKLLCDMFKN

[24] = target: T8, Low molecular weight phosphotyrosine protein phosphatase (Homo sapiens, UniProt P24666); format: functional; conditions: read-out: IC50_Mean;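 note: Dose-response confirmation assay measuring inhibition of LMPTP enzyme activity by fluorescence intensity read-out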
T8 sequence (P24666 whole entry): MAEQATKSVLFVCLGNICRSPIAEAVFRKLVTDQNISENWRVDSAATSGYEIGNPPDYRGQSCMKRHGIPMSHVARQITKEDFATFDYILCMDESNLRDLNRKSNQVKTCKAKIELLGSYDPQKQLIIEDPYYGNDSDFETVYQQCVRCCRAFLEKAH

T1 sequence (P65502 whole entry): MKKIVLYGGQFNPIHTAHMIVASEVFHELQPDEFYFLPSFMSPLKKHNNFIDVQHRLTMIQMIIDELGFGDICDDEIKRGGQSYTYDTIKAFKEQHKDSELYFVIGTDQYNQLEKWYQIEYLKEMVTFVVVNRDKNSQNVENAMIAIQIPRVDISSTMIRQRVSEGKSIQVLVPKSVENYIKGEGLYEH

Structure (SMILES): Cc1ccc2[nH]c(=O)c(CN(CCc3ccccc3)C(c3nnnn3Cc3ccco3)C(C)C)cc2c1 (stereo unspecified)
- IC50 [1]: 12.1 µM (active)
- IC50 [2]: 20 µM (active)

Structure (SMILES): CCCCC[C@@H]1C=C(C(=O)O)[C@H](c2ccc(Cl)cc2)N1S(=O)(=O)c1ccc(C)cc1
- CC50 (Vero [3]): > 40 µM (active)
- IC50 (Genome polyprotein): 42.3 µM (active)

Structure (SMILES): COc1cc(NC(=O)Nc2nc(C(N)Cc3ccc(C(F)(F)F)cc3)cs2)cc(OC)c1OC (stereo unspecified)
- EC50 (Melanocortin receptor 4): > 89.2 µM (inactive)

Structure (SMILES): CCCCCCn1c(=O)[nH]c2nc3cc(N)ccc3nc2c1=O
- IC50 (Beta-lactamase [4]): > 59.6 µM (inactive)
- EC50 [5]: > 300 µM (inconclusive)
- IC50 (Beta-lactamase [6]): 9.7 µM (active)
- EC50 [7]: > 300 µM (inconclusive)

Structure (SMILES): COc1ccccc1CN(Cc1nc(O)c2ccccc2n1)S(=O)(=O)c1ccc(C)cc1
- IC50 (Protein Wnt-3a): 32.7 µM (inactive)

Structure (SMILES): O=C(N[C@H]1C/C=C\C[C@@H](CC(=O)N(CCO)Cc2ccccc2)C(=O)N[C@H](Cc2c[nH]c3ccccc23)COC1=O)OCC1c2ccccc2-c2ccccc21
- IC50 (Protein Wnt-3a): 17.8 µM (active)

Structure (SMILES): CC(C)(C)c1cc(Cl)ccc1OCCOCCN1CCCC1
- IC50 [8]: 104 µM (active)
- AC50 [9]: 6.93 µM (active)
- CC50 [10]: 67.4 µM (active)

Structure (SMILES): CC(=O)O[C@]1(C(C)=O)CC[C@H]2[C@@H]3C=C(C)C4=CC(=O)CC[C@]4(C)[C@H]3CC[C@@]21C [MEGESTROL ACETATE]
- AC50 [11]: 11 µM (active)

Structure (SMILES): COc1ccc(-c2csc(C3=C(N)N(Cc4ccc(Cl)cc4)CC3=O)n2)cc1OC
- EC50 [12]: > 120 µM (not active)
- EC50 [13]: 85.3 µM (active)
- EC50 [14]: 32.9 µM (active)
- EC50 (Melanocortin receptor 4): > 89.2 µM (inactive)

Structure (SMILES): Cc1nc(=O)c(-c2ccccc2)c(C)n1-c1ccc(Br)cc1
- AC50 [11]: 15.6 µM (active)

Structure (SMILES): Clc1ccc(CCNCc2ccncc2)c(Cl)c1
- EC50 (cells [15]): > 29.9 µM (inactive)
- IC50 [16]: 6.77 µM (active)
- EC50 [17]: 2.01 µM (active)
- IC50 (cells [18]): > 29.9 µM (inactive)

Structure (SMILES): C#Cc1ccc([C@H]2C=C(C(=O)NCc3nc4ccccc4[nH]3)O[C@@H](OCc3ccc(CO)cc3)C2)cc1
- IC50 [1]: 10.5 µM (active)
- IC50 [2]: 20.7 µM (active)

Structure (SMILES): COc1ccc(NC(=O)Nc2nnc(-c3ccccc3SCc3ccccc3)s2)cc1
- EC50 (Melanocortin receptor 4): > 89.2 µM (inactive)

Structure (SMILES): CN(C)c1nc(=NCc2cccs2)ss1
- CC50 (Vero [19]): 19 µM (active)
- IC50 [8]: 134 µM (active)
- IC50 [20]: > 80 µM (inactive)
- CC50 [10]: 100 µM (active)

Structure (SMILES): Cc1[nH]c2ccc(C(=O)OCC(=O)Nc3cccc(S(N)(=O)=O)c3)cc2c1C
- IC50 [21]: 0.624 µM (active)
- IC50 [22]: > 66.6 µM (inactive)

Structure (SMILES): O=C(OC(c1ccccc1)c1nccc2ccccc12)c1ccccc1 (stereo unspecified)
- IC50 [23]: 36.1 µM (inactive)

Structure (SMILES): COc1ccc(NC2c3ccccc3C(=O)N2Cc2ccccc2Cl)cc1OC (stereo unspecified)
- IC50 [23]: 1.5 µM (active)

Structure (SMILES): COc1ccc(-c2cc(C(=O)Nc3cc(Cl)ccc3O)no2)cc1
- IC50 [24]: 2.91 µM (active)

Structure (SMILES): CC(=O)N1CCN(c2ccc([N+](=O)[O-])cc2C=C2C(=O)NC(=O)NC2=O)CC1
- AC50 [11]: 8.51 µM (active)

Structure (SMILES): COC(=O)C1=C(COc2ccccc2)NC(=O)NC1c1ccc(Br)cc1 (stereo unspecified)
- IC50 [21]: 15.2 µM (active)
- IC50 [22]: > 66.6 µM (inactive)

Structure (SMILES): CCn1c(=S)sc2c(=O)n(CC(=O)Nc3ccccc3C(F)(F)F)c(C)nc21
- IC50 (Beta-lactamase [4]): 22.7 µM (inactive)
- IC50 (Beta-lactamase [6]): > 59.6 µM (inactive)
- IC50 [24]: 16.2 µM (active)

Structure (SMILES): O=S(=O)(c1ccc2c(c1)nc(COc1ccc(Cl)cc1)n2CC1CCCO1)N1CCOCC1 (stereo unspecified)
- IC50 (Protein Wnt-3a): 4.1 µM (active)
- EC50 [12]: 19.6 µM (active)
- EC50 [13]: 15.8 µM (active)
- EC50 [14]: > 120 µM (not active)
